Measured values published in patent US20160331783A1, “BISAMIDE COMPOUNDS AS ALLOSTERIC EFFECTORS FOR REDUCING THE OXYGEN-BINDING AFFINITY OF HEMOGLOBIN” (THE GENERAL HOSPITAL CORPORATION, priority 2014, published 2016).
Several values for one entry are separate records, joined by “and”; a condition that tells them apart may be missing. Equal values may be shown once.

Assays:
[1] = target: T1, purified human hemoglobin (Homo sapiens, UniProt P68871); assay: Oxygen dissociation curve (ODC) of purified hemoglobin, Hemox analyzer, P50; format: biochemical; conditions: for P50 of hemoglobin: hemoglobin 20 μM tetramer, compound 200 μM, DPBS pH 7.4, 5 vol % DMSO, 37° C., hemoglobin alone 17 Torr
T1 construct: For experiments with purified hemoglobin, hemoglobin (20 μM as tetramer) was dissolved in DPBS
Procedure: (§1) The ODC of hemoglobin was measured with a Hemox analyzer (TCS Scientific Corporation) at 37° C. For experiments with purified hemoglobin, hemoglobin (20 μM as tetramer) was dissolved in DPBS and antifoam (0.2 vol %, Catalog No. AFA-25, TCS Scientific Corporation) was added to prevent foaming of the sample. Compounds were prepared in DMSO stock solutions then added to hemoglobin. The final concentration of DMSO was adjusted to 5 vol %. For experiments with RBCs, blood was drawn from volunteers into EDTA tubes. The blood was centrifuged for 15 min at 3,000 rpm at 4° C. The supernatant was discarded, and RBCs were washed three times with DPBS, pH 7.4 by dilution to 50% hematocrit. The washed RBCs were then diluted with Hemox solution (mixture of N-[Tris(hydroxymethyl)methyl]-2-aminoethanesulfonic acid (TES, 30 mM), sodium chloride (135 mM), and potassium chloride (5 mM) in water (pH 7.4), TCS Scientific Corporation), and mixed with the test compound stock solutions. When known allosteric effectors NEM (400 μM), 5HMF (2 mM) or formamidine disulfide (400 μM) were mixed with RBCs (20 μM as hemoglobin tetramer) for 1 h at 37° C., P50 was reduced to 8 Torr, 9 Torr, and 9 Torr respectively, which correlated with previous reports (see Garel et al., European Journal of Biochemistry, 1982, 123, 513-519). Data was analyzed by two-tailed, unpaired Student's t test using Microsoft Excel 2007.
A saturating effect on P50 was first determined by adding an increasing concentration of 2,3-DPG and IHP. No increase of P50 of hemoglobin was observed after an addition of a 30-fold molar excess of 2,3-DPG or IHP to hemoglobin. Hemoglobin (20 μM as tetramer) was pre-incubated with either 2,3-DPG (600 μM) or IHP (600 μM) followed by addition of Compound 1 (0, 50, 100, 150 and 200 μM) to the hemoglobin.

[2] = target: T2, hemoglobin (Homo sapiens, UniProt P68871); assay: Small molecule microarray (SMM) binding to hemoglobin; conditions: hemoglobin 1 μg/mL, antibody detection
T2 construct: incubated in a TBS-T solution containing purified hemoglobin (1 μg/mL)
Procedure: Test compounds were affixed to SMM slides with isocyanate-functionalized surfaces as described in Casalena et al., Methods in molecular biology, 2012, 803, 249-263. Pre-incubating the SMMs with albumin blocked non-specific binding of the compounds to SMMs. Compounds binding to hemoglobin were detected on the SMMs using a fluorescent dye-conjugated antibodies specific for hemoglobin. The assay was validated by confirming the binding of hemoglobin to 2,3-DPG affixed on SMMs.
Each slide contained 48 “blocks”, and each block contained approximately 100 unique surface-immobilized small molecules. Compounds were printed in duplicate, and each slide was screened in duplicate, resulting in four replicates for every test compound. SMM slides were blocked by incubating them in a TBS-T solution (Tween 20, 0.01 vol %) containing bovine serum albumin (BSA, 0.1 wt %) for 30 min. […]
Using SMM Hits-Analyzer software (Broad Institute), the measured fluorescent signal of the foreground of a given spot (F) was divided by its local background (B) resulting in a calculated F/B ratio for each spot on which the test compounds were affixed. The F/B ratios were fitted to a Cauchy distribution plot for every block on the slide, and “positive” hits were determined using a p-value threshold of 7%. […]

[3] = tested on: RBCs; assay: Hemolysis of RBCs / blood on incubation with compound; format: cell-based, human; conditions: compound 20 μM in DPBS with 5% DMSO
[4] = target: deoxygenated hemoglobin (deoxyHb) (Homo sapiens, UniProt P68871); assay: X-ray crystallography of deoxyHb complexed with Compound 1; format: binding; conditions: PDB 4L7Y, 1.80 Å
Procedure: To obtain unliganded hemoglobin structure in complex with 1, freshly prepared solution of 1 in DMSO was incubated with deoxygenated hemoglobin (deoxyHb) (30-50 mg/mL) for 1 h at a hemoglobin tetramer-1 molar ratio of 1:5, followed by crystallization with a low-salt precipitant (0.2 M sodium acetate trihydrate, 0.1 M sodium cacodylate trihydrate, pH 6.6 and 30% PEG 8000). The crystals were washed in a cryo-protectant solution containing mother liquor and glycerol (3:1 ratio) prior to data collection. The complex crystallized in the orthorhombic space group P21212 with typical cell dimensions a=96 Å, b=98 Å and c=65 Å with one functional tetramer per asymmetric unit.
Diffraction data of all crystals were collected at 100 K with a Rigaku IV ++ image plate detector using a CuKα X-rays (k=1.54 Å) from a MicroMax-007 source fitted with Varimax Confocal optics (Rigaku, The Woodlands, Tex.). The datasets were processed with the d*trek software (Rigaku) and the CCP4 suite of programs.
Initial phase for the deoxyHb-1 complex structure was obtained by a molecular replacement method with the program CNS, using human deoxyHb […] tetramer structure (PDB code 2DN2) as a search model. Subsequent structure refinements were performed with the CNS program. Model building and correction were carried out using the graphic program COOT. […]

[5] = target: T2, hemoglobin; assay: Hemoglobin oxygen-binding assay (oxyHb % by spectrophotometry at controlled FO2); format: biochemical; conditions: allosteric effector to hemoglobin tetramer 6 to 1 (mol/mol)
Procedure: Test compounds (0.75 μL, 10 mM in DMSO) were added to the central area of two 384 deep well plates forming compound plates. DPBS was used as the solvent for myo-inositol hexaphosphate (IHP) and N-ethylmaleimide (NEM) (10 mM). To prevent oxidation of hemoglobin during the experiment, glucose-6-phosphate (0.4 mg/mL), glucose-6-phosphate dehydrogenase (1.0 U/mL), nicotinamide adenine dinucleotide phosphate (NADP, 0.05 mg/mL), ferredoxin (0.01 mg/mL), ferredoxin-NADP reductase (0.01 U/mL) and catalase (2×10^3 U/mL) were added to hemoglobin to produce the Hayashi reducing system, which is described in detail in Hayashi et al., Biochemica et Biophysica Acta, 1973, 310, 309-316. […]
The alteration of hemoglobin's oxygen-binding affinity by the test compounds binding to hemoglobin was evaluated in an environment where the fractional oxygen pressure (FO2) could be precisely measured and controlled. […] To confirm the allosteric effect of the test compounds, ODC of hemoglobin was measured in the presence and absence of each compound. […]
The ability of small molecules to alter the oxygen affinity of hemoglobin was determined by measuring the fraction of oxygenated hemoglobin (oxyHb %) and oxidized hemoglobin (metHb %) using spectrophotometry under three (high, medium, and low oxyHb saturation) conditions. […]

[6] = tested on: human red blood cells (RBCs) / whole blood; assay: Oxygen dissociation curve (ODC) of RBCs / whole blood, Hemox analyzer, P50; format: cell-based; conditions: allosteric effector 400 μM, RBCs 20 μM as hemoglobin tetramer, 1 h at 37° C.
Procedure: as §1

In the case of `O=C(O)C(COP(=O)(O)O)OP(=O)(O)O` (centres unmarked) [2,3-DPG, 2,3-diphosphoglycerate, reference compound], the P50 of hemoglobin [1] is reported as 19±0.1 Torr, the “P50 of hemoglobin with 2,3-DPG” value ([1]; hemoglobin 20 μM, 2,3-DPG 600 μM (pre-saturated), no Compound 1) is reported as 23±0.7 Torr and the “Binding of hemoglobin to compound affixed on SMMs” value [2] is reported as “binding”.

With `Cc1cc(C)cc(C(=O)N(C)[C@H](Cc2ccc(-c3ccccc3)cc2)C(=O)N[C@@H](Cc2c[nH]c3ccccc23)C(=O)O)c1` [Compound 1, (S)-2-((R)-3-([1,1′-biphenyl]-4-yl)-2-(N,3,5-trimethylbenzamido)propanamido)-3-(1H-indol-3-yl)propanoic acid] the “Increase of P50 of hemoglobin, dose dependence” value ([1]; FIG. 3, FIG. 6-7) was “concentration-dependent”, the P50 of hemoglobin [1] was 24 Torr and 24±0.4 Torr and the “P50 of hemoglobin pre-saturated with 2,3-DPG plus Compound 1” value ([1]; hemoglobin 20 μM, 2,3-DPG 600 μM, Compound 1 200 μM) was 29±0.5 Torr. For the same compound, the “Synergistic reduction of oxygen binding affinity in combination with 2,3-DPG” value ([1]; hemoglobin 20 μM, 2,3-DPG 600 μM, Compound 1 up to 200 μM) was “synergistic reduction”, the “Synergistic reduction of oxygen binding affinity in combination with IHP” value ([1]; hemoglobin 20 μM, IHP 600 μM, Compound 1 up to 200 μM) was “did not induce a synergistic reduction” and the “P50 with purified hemoglobin” value ([1]; hemoglobin 20 μM, tested compound 120 μM, purified hemoglobin alone 17 Torr) was 24 Torr. The “Hemolysis of RBCs” value [3] was “hemolysis” and the “Binding site in deoxyHb crystal structure” value [4] was “non-covalently binds at the β-cleft on the dyad axis”.

For `O=P(O)(O)O[C@H]1[C@H](OP(=O)(O)O)[C@@H](OP(=O)(O)O)[C@H](OP(=O)(O)O)[C@@H](OP(=O)(O)O)[C@H]1OP(=O)(O)O` [IHP, myo-inositol hexaphosphate], the “Change of oxyHb %” value [5] was “decrease”.

In the case of `CCN1C(=O)C=CC1=O` [NEM, N-ethylmaleimide, reference compound], the “P50 of RBCs” value [6] is reported as 8 Torr and the “Change of oxyHb %” value [5] is reported as “increase”.
